Laboratory results taken from publication PMC5654082 (Malaria Journal, 2017).
Structures can show the parent of a compound that is named as a salt. Where two headings read alike, the source gives them in different places. Marks after values point to notes of the source that are not given here.

Columns and labels:
human OCT2 = biological target: T1, human OCT2 (Homo sapiens, UniProt O15244); experiment: OCT2-mediated cellular import in transduced HEK293 cells (LC-MS/MS); type: cell-based
T1 construct: host or cells: HEK293, baculovirus transduction (CMV promoter), transient
T1 sequence (O15244 1-555): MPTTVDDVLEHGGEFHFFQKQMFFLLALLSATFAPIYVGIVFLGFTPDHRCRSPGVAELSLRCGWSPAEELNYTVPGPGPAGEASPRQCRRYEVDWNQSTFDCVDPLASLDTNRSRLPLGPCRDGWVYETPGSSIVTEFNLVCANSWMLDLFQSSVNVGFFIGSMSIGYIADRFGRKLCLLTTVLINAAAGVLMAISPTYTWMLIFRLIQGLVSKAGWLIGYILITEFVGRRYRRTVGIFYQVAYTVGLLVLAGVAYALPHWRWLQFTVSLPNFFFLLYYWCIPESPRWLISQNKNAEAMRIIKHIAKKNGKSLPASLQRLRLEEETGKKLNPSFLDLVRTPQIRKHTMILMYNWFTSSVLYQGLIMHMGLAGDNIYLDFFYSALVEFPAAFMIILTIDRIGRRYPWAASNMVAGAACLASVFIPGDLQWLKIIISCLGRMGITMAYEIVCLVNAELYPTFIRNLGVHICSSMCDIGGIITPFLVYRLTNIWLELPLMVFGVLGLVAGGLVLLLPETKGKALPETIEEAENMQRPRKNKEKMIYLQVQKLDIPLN
Description: HEK293 cells were modified to transiently express (a combination of) human OCT1, OCT2, MATE1, MATE2-K, or eYFP. Briefly, cDNA of the respective genes was cloned downstream of a CMV promoter into a baculovirus, of which passage three was used to transduce HEK293 cells. These cells were seeded in poly-D-lysine coated 24- or 96-wells plates and grown in a 37 °C incubator at 5% CO2. Growth was initiated at ~ 25% confluency using 375 or 125 μL cell and complete medium (DMEM + GlutaMAX™-I supplemented with 10% fetal bovine serum) suspension per well, respectively. After 24 h, cells were transduced with 30 µL virus (10 µL virus + 20 µL complete medium in case of 96-wells plates) or 2 × 15 µL virus for cells that required simultaneous expression of two transporters. Finally, 195 µL sodium butyrate (45 µL for 96-wells plates) was added to a final concentration of 2 mM to enhance protein expression.
HEK293 cells were seeded in 24-wells poly-D-lysine coated plates and transduced the subsequent day with OCT1 or OCT2 as described above. Three days following transduction, OCT1- or OCT2-mediated uptake of ten anti-malarials (AMO, ART, ATO, CQ, DHA, LUM, MQ, PQ, PG, and QN) was performed. […] Following a second wash with 400 µL ice-cold HBSS-HEPES buffer, cells were lysed with 200 µL 50% (v/v) MeOH and 0.1% (v/v) formic acid (HCOOH) in water and samples were sent for quantification by mass spectrometry analysis (see “LC–MS/MS quantification of anti-malarials” section). […]
The affinity (KM) and maximum transport rate (Vmax) for OCT1 and OCT2 of PG were determined by analysing concentration-dependent uptake data from three independent experiments.
Import and export of PG and cycloguanil (CG) was assessed by single and double transduced HEK293 cells. […] Following the same procedure as for the cellular import assay described above, the import of 100 µM PG and CG was measured after 5 min incubation and data was plotted as mean pmol/mg/min ± SEM. […] Significant reduction in uptake (i.e. export by MATEs) was determined using ln transformation and a one-way repeated measures ANOVA with Dunnet’s post test. […]

[1] = Thai children with uncomplicated multidrug-resistant falciparum malaria; (geometric) mean or median; cited from earlier work
[2] = Maximum plasma concentration from in vivo pharmacokinetic studies after therapeutic dosing; conditions: human, the literature Cmax (ng/mL) of Table 2 expressed in µM
Text: As Cmax the (geometric) mean or median maximum plasma concentrations obtained from previous in vivo pharmacokinetic studies after therapeutic dosing was used.

| Uptake by OCT2 (human OCT2; 100 µM, 5 min) [pmol/mg/min] | Structure (SMILES) | Cmax [1] | Uptake by OCT2, percentage of mock-transduced control (human OCT2; 10 µM, 15 min, 37 °C) [%] | Cmax [2] [µM] |
| --- | --- | --- | --- | --- |
| 118 ± 18 | CC1(C)N=C(N)N=C(N)N1c1ccc(Cl)cc1 [Cycloguanil] | – | – | – |
| – | [H]/N=C(\N/C(=N/[H])Nc1ccc(Cl)cc1)NC(C)C [Proguanil, proguanil hydrochloride] | 306^d [47] ng/mL | 207 ± 17 | 1.2 |
